Earlier results as cited in patent US20210353513A1, “STABILIZED OIL-IN-WATER EMULSION” (priority 2018, published 2021).

CCCCCCCCCC(=O)OCC(COC(=O)CCCCCCCCC)OC(=O)CCCCCCCCC [Tricaprin (s, β), Tricaprin]
Density (g/cm^3) at 20° C.: 1.05 g/mL
